Data as given in US10272260B2, “Methods and devices for diagnosing, monitoring, or treating medical conditions through an opening through an airway wall” (Broncus Medical Inc., priority 2011, dated 2019).

Settings: polymer system of polydimethylsiloxane vinyl terminated at various viscosity and a range of platinum-mono, di, tri and/or tetramethyldisiloxane complex
Description: The amount of vinyl siloxane cross-linker may determine the rate of the drug release and diffusivity of the polymer to the drug.

SMILES: CC(=O)O[C@H]1C(=O)[C@@]2(C)[C@H]([C@H](OC(=O)c3ccccc3)[C@]3(O)C[C@H](OC(=O)[C@H](O)[C@@H](NC(=O)c4ccccc4)c4ccccc4)C(C)=C1C3(C)C)[C@]1(OC(C)=O)CO[C@@H]1C[C@@H]2O [paclitaxel]
- release profile: acceptable
